“Also recorded” adds a separate entry of the source. Like-named read-outs stand apart in the source and are kept apart here.
Key:
[1] = cited from earlier work
SMYD2 = SMYD2 (Homo sapiens, UniProt Q9NRG4); conditions: cited from earlier work
[2] = test system: J-Lat cells (clone A2: LTR-Tat-IRES-GFP); format: cell-based; conditions: A2 J-Lat cells, single agent
Method: To test this hypothesis, J-Lat cells (clone A2: LTR-Tat-IRES-GFP) were treated with SMYD2 inhibitors. […] Both cell lines were co-treated with X2 and Ingenol 3,20-dibenzoate (a protein kinase C (PKC) activator), JQ1 (BET-bromodomain inhibitor), or the histone deacetylase (HDAC) inhibitor suberoylanilidehydroxamic acid (SAHA).

[3] = test system: J-Lat A72 cell line (LTR-GFP)
Method: J-Lat (clones A2 and A72) cell lines were cultured as described in Jordan et al., EMBO J. 2003 Apr. 15:22(8):1868-77. Human αCD3/αCD28 beads (Life Technologies) were used at a concentration of 1 bead/cell ratio. JQ1 (Sigma-Aldrich) was used at a concentration of 0.1-10 μM. Ingenol 3,20-dibenzoate (Sigma-Aldrich) was used at concentrations of 5-200 nM, and SAHA (Sigma-Aldrich) was used at concentrations of 110 nM, 330 nM, or 1 μM.
HEK293T cells were obtained from the American Type Culture Collection. J-Lat (clones A2, A72, and 5A8) cell lines were described (Chan et al., 2013; Jordan et al., 2003). HEK293T cells were cultured in DMEM supplemented with 10% FBS, 1% L-glutamine and 1% penicillin-streptomycin (Life Technologies). J-Lat cells were cultured in RPMI supplemented with 10% FBS, 1% L-glutamine and 1% penicillin-streptomycin (Life Technologies). […] TNFα (Sigma-Aldrich) was used at 0.5-10 ng/ml. Human αCD3/αCD28 Dynabeads (Invitrogen) were used at a 1 bead/cell ratio. JQ1 (Cayman Chemical) was used at 0.1-10 μM. Ingenol 3,20-dibenzoate (Santa Cruz Biotechnology) was used at 5-200 nM, and SAHA (Merck) was used at 110 nM, 330 nM, or 1 μM. Phorbol 12-myristate 13-acetate (PMA) (Sigma) was used at 10 nM and ionomycin (Sigma) was used at a concentration of 500 nM. UNC926 (Tocris Bioscience) was used at a concentration of 10 nM-100 μM. AZ505. AZ506, and AZ391 were used at a concentration of 10 nM-10 μM.
ShRNA-expressing lentiviral vectors were purchased from Sigma-Aldrich. The pLKO.1 vector containing a scrambled shRNA was used as control. […] J-Lat 5A8, A72 and A2 cells were spininfected with virus (1 ng of p24 per 10^6 cells) containing shRNAs against KMTs or nontargeting control shRNAs and were selected with puronycin (2 μg/ml: Sigma). After 7 days of selection, cells were treated with the indicated concentration of drugs. The percentage of GFP^+ cells was determined after 18 h using a MACSQuant VYB FACS analyzer (Miltenyi Biotech GmbH). Cell viability was monitored by forward-and-side scatter analysis. Analysis was conducted on 3×10,000 live cells per condition. Data were analyzed using FlowJo 9.5 (Tree Star).

L3MBTL1 = target: T1, L3MBTL1 (Homo sapiens, UniProt Q9Y468); conditions: cited from earlier work
T1 sequence (Q9Y468 1-840): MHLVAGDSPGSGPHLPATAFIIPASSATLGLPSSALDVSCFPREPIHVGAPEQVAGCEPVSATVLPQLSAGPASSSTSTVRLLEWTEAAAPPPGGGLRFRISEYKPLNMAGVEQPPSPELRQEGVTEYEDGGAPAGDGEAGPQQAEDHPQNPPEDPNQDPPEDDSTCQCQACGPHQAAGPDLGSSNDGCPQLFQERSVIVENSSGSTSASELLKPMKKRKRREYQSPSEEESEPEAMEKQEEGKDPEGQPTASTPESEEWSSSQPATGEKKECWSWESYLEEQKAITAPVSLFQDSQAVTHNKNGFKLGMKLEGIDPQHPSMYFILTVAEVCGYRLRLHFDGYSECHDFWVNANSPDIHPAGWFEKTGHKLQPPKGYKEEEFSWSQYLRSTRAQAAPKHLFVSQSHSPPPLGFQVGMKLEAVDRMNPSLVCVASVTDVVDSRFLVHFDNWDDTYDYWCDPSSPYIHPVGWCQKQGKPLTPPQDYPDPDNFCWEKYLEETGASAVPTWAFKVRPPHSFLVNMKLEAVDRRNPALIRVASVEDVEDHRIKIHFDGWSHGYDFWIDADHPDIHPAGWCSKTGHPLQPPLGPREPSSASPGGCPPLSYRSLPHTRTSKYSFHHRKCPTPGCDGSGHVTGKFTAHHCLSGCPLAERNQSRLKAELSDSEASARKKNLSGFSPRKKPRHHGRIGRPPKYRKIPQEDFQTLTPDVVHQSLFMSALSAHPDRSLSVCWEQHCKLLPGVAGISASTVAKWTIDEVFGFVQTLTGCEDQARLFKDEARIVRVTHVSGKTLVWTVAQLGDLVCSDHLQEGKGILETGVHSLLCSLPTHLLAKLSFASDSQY

J-Lat 5A8 cells = test: SMYD5 shRNA knockdown in J-Lat 5A8 cells (qPCR, GFP flow cytometry); format: cell-based; conditions: for SMYD5 knockdown efficiency by qPCR: J-Lat 5A8 cells; for reactivation of viral latency (GFP) after CD3/28 antibody stimulation: suboptimal, medium or saturating doses, 24 hours
Method: ShRNA-expressing lentiviral vectors were purchased from Sigma-Aldrich. The plasmids TRCN000155095 (Target sequence: […]) (SEQ ID NO:76) and TRCN0000156306 (Target sequence: […]) (SEQ ID NO:77) were used to deplete SMYD5. The pLKO. I vector containing a scrambled shRNA was used as control. […]; 272:263-7), and titered for p24 content. […] Data were analyzed using FlowJo 9.5 (Tree Star).
RNA was isolated using RNeasy Plus Mini Kit (Qiagen) and reverse-transcribed using SuperScript III Reverse Transcriptase (Invitrogen) as per the manufacturer's instructions. Quantitative RT-PCR was carried out using Maxima SYBR Green qPCR Master Mix (Thermo Scientific) on SDS 2.4 software (Applied Biosystems) in a total volume of 12 μL. Primer efficiencies were around 100%. Dissociation curve analysis was performed after the end of the PCR to confirm the presence of a single and specific product.
To confirm results from the shRNA screen, SMYD5 was individually knocked down in J-Lat 5A8 cells. Cells were transduced with lentiviral vectors expressing two different shRNAs targeting SMYD5 or a scrambled control shRNA, followed by puromycin treatment to select successfully transduced cells. The shRNA knockdown was confirmed using qPCR and failed for #1 and was ˜50% effective for #2 (FIG. 26A). Cells were then stimulated with suboptimal, medium, or saturating doses of CD3/28 antibodies or were left unstimulated for 24 hours, followed by flow cytometry of GFP. […] To test effects of SMYD5 on basal HIV-1 transcription we analyzed RNAs from nonactivated control and SMYD5 knockdown cells with primers specific for the viral LTR; mRNAs for SMYD5 and the NF-κB factor p65 were used as controls (FIG. 26D). SMYD5 knockdown reduced basal HIV-1 transcription by ˜50% mirroring the knockdown efficiency of shRNA #2 (FIG. 26D). In independent experiments to investigate the biological role of SMYD5 during HIV transcription, HeLa cells were transfected with an HIV LTR luciferase construct and expression vectors for Tat and SMYD5. Overexpression of SMYD5 marked activation of a co-transfected viral LTR-luciferase reporter construct was observed (FIGS. 28A and 28B). To identify the target for SMYD5 in HIV-1 infection, we performed in vitro methylation assays with recombinant SMYD5 on purified human histones, Tat (aa 1-72) [SEQ ID NO. 39], NF-κB, RelA, Sp1, and P-TEFb components cyclin T1 and CDK9. Reactions included 3H-SAM and were performed with or without recombinant SMYD5 enzyme. After gel electrophoresis, coomassie staining and autoradiography no methylation was detected for RelA, Sp1, cyclin T1 and CDK9 (FIG. 27). However, histones H3 and H1 were weakly and Tat strongly methylated by SMYD5 (FIG. 27). To map the site of methylation in Tat, we performed in vitro methylation reactions using non-radiolabeled SAM and subjected them to reversed-phase liquid chromatography electrospray tandem mass spectrometry (LC-MS/MS). This analysis identified a single site, trimethylation of K41, identified in two distinct peptides (not shown). No mono or dimethylation at Tat K41 was observed.

SMYD2, sequence (Q9NRG4 whole entry): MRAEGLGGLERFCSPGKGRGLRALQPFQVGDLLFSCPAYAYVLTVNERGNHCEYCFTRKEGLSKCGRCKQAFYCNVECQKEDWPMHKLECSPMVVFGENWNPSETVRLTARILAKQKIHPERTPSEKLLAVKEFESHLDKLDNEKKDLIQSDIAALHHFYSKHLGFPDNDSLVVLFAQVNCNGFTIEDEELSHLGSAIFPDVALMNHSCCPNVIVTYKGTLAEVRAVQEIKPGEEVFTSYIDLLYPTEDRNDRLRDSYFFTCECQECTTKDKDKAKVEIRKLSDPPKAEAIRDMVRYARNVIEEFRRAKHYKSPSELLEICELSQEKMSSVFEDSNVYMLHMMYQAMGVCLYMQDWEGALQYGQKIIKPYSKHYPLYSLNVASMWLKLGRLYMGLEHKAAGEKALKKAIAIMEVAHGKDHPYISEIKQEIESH

O=C1COc2c(CCNCCN(C(=O)CCNCCc3ccc(Cl)c(Cl)c3)C3CCCCC3)ccc(O)c2N1 [AZ505, N-cyclohexyl-3-((3,4-dichlorophenethyl)amino)-N-(2-((2-(5-hydroxy-3-oxo-3,4-dihydro-2H-benzo[b][1,4]oxazin-8-yl)ethyl)amino)ethyl)propanamide bis(2,2,2-trifluoroacetate), reference compound]
cell permeability ([1]; bis(2,2,2-trifluoroacetate)): lack of cell permeability; also recorded: not cell-penetrable
Kd compared with the p53 peptide (SMYD2): approximately sevenfold lower than the p53 peptide
activation of HIV transcription / reactivation of the HIV-LTR (GFP) [2]: failure of AZ505 to effectively activate HIV transcription

O=C(NCCCN1CCCC1)c1cncc(-c2ccccc2N2CCN(CCc3c[nH]c4ccccc34)CC2)c1 [AZ506]
activation of GFP expression / reactivation of the HIV-LTR ([3]; A72 J-Lat cells, single agent): activated GFP expression at high concentrations
cell permeability [1]: cell-permeable

UNC926 [reference compound]
concentration at which activation is observed ([3]; A72, 10 nM-100 μM, without or with 0.1 ng/ml TNFα, 18 h): 100 µM
viability by forward-side scatter analysis ([3]; A72, up to 100 μM, 18 h): No effect on viability
basal transcriptional activity ([3]; A72 J-Lat cells): a doubling in basal transcriptional activity
Kd (L3MBTL1): 3.9 µM

shRNA #1: lentiviral shRNA targeting SMYD5 (SEQ ID NO:74) (CCGGGCTATGGGAATTACAACCCATCTCGAGATGGGTTGTAATTCCCATAGCTTTTTTG)
SMYD5 knockdown efficiency by qPCR (J-Lat 5A8 cells): failed
reactivation of viral latency (GFP) after CD3/28 antibody stimulation (J-Lat 5A8 cells): had no effect

shRNA #2: lentiviral shRNA targeting SMYD5 (SEQ ID NO:75) (CCGGCTGTGACACTCTGGAGTTGAACTCGAGTTCAACTCCAGAGTGTCACAGTTTTTTG)
SMYD5 knockdown efficiency by qPCR (J-Lat 5A8 cells): ~50%
reduction of basal HIV-1 transcription (viral LTR RNA, RT-qPCR) (J-Lat 5A8 cells; nonactivated cells): ~50%
reactivation of viral latency (GFP) after CD3/28 antibody stimulation (J-Lat 5A8 cells): suppressed reactivation of viral latency

From US11807852B2, “Compositions and methods for reactivating latent immunodeficiency virus” (The J. David Gladstone Institutes, a testamentary trust …, priority 2014, dated 2023)
